Tests used:
rat orexin-1 receptor = molecular target: T1, rat orexin-1 receptor (Rattus norvegicus, UniProt P56718); test: FLIPR Ca2+ flux assay, OX1R; format: cell-based; conditions: CHO cells expressing the rat orexin-1 receptor; agonist 70 pM Ala-6,12 orexin-A
T1 construct: expressed in transfected cells; host or cells: CHO cells (grown under G418 selection)
T1 sequence (P56718 1-416): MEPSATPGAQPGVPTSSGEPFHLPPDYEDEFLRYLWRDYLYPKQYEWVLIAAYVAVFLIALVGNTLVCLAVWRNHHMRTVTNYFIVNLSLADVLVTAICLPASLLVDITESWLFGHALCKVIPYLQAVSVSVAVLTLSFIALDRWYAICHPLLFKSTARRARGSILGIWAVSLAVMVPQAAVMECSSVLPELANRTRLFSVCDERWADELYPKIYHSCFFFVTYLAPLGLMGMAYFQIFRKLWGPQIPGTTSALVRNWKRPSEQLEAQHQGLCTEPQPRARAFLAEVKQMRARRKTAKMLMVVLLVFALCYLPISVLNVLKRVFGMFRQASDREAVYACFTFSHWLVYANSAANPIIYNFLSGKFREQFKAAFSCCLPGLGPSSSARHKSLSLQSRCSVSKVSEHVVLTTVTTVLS
Protocol: (§1) The utility of the compounds in accordance with the present invention as orexin receptor OX1R and/or OX2R antagonists may be readily determined without undue experimentation by methodology well known in the art, including the “FLIPR Ca^2+ Flux Assay” (Okumura et al., Biochem. Biophys. Res. Comm. 280:976-981, 2001). In a typical experiment the OX1 and OX2 receptor antagonistic activity of the compounds of the present invention was determined in accordance with the following experimental method. For intracellular calcium measurements, Chinese hamster ovary (CHO) cells expressing the rat orexin-1 receptor or the human orexin-2 receptor, are grown in Iscove's modified DMEM containing 2 mM L-glutamine, […], 1% hypoxanthine-thymidine supplement, 100 U/ml penicillin, 100 μg/ml streptomycin and 10% heat-inactivated fetal calf serum (FCS). The cells are seeded at 20,000 cells/well into Becton-Dickinson black 384-well clear bottom sterile plates coated with poly-D-lysine. All reagents were from GIBCO-Invitrogen Corp. The seeded plates are incubated overnight at 37° C. and 5% CO2. Ala-6,12 human orexin-A as the agonist is prepared as a 1 mM stock solution in 1% bovine serum albumin (BSA) and diluted in assay buffer (HBSS containing 20 mM HEPES, 0.1% BSA and 2.5 mM probenecid, pH7.4) for use in the assay at a final concentration of 70 pM. Test compounds are prepared as 10 mM stock solution in DMSO, then diluted in 384-well plates, first in DMSO, then assay buffer. On the day of the assay, cells are washed 3 times with 100 μl assay buffer and then incubated for 60 min (37° C., 5% CO2) in 60 μl assay buffer containing 1 μM Fluo-4AM ester, 0.02% pluronic acid, and 1% BSA. The dye loading solution is then aspirated and cells are washed 3 times with 100 μl assay buffer. 30 μl of that same buffer is left in each well. Within the Fluorescent Imaging Plate Reader (FLIPR, Molecular Devices), test compounds are added to the plate in a volume of 25 μl, incubated for 5 min and finally 25 μl of agonist is added. Fluorescence is measured for each well at 1 second intervals for 5 minutes and the height of each fluorescence peak is compared to the height of the fluorescence peak induced by 70 pM Ala-6,12 orexin-A with buffer in place of antagonist. For each antagonist, IC50 value (the concentration of compound needed to inhibit 50% of the agonist response) is determined. Alternatively, compound potency can be assessed by a radioligand binding assay (described in Bergman et. al. Bioorg. Med. Chem. Lett. 2008, 18, 1425-1430) in which the inhibition constant (Ki) is determined in membranes prepared from CHO cells expressing either the OX1 or OX2 receptor. The intrinsic orexin receptor antagonist activity of a compound which may be used in the present invention may be determined by these assays.

human orexin-2 receptor = molecular target: T2, human orexin-2 receptor (Homo sapiens, UniProt O43614); test: FLIPR Ca2+ flux assay, OX2R; format: cell-based; conditions: for IC50: CHO cells expressing the human orexin-2 receptor, agonist 70 pM Ala-6,12 orexin-A; for Fold Selective: OX1R FLIPR / OX2R FLIPR
T2 construct: expressed in transfected cells; host or cells: CHO cells (grown under G418 selection)
T2 sequence (O43614 1-444): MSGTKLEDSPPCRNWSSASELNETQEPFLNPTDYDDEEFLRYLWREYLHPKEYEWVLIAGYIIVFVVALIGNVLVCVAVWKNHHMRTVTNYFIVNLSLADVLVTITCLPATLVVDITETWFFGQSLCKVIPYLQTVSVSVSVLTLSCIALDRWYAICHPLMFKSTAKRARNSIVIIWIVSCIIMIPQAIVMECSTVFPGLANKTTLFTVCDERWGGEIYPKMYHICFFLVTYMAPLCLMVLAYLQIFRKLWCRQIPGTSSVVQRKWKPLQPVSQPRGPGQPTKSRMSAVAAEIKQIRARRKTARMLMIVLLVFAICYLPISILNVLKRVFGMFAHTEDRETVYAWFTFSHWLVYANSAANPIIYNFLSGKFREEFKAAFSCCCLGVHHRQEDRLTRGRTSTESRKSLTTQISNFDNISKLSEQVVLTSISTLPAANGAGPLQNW
Protocol: as §1

Row | Structure (SMILES) | IC50 (rat orexin-1 receptor) [nM] | IC50 (human orexin-2 receptor) [nM] | Fold Selective (human orexin-2 receptor)
1 | Cc1cc(C)nc(N2CC3CC2CN(C(=O)c2cccnc2-c2noc(C)n2)C3)n1 (stereo not drawn) [Example 23, 6-(4,6-dimethylpyrimidin-2-yl)-3-{[2-(5-methyl-1,2,4-oxadiazol-3-yl)pyridin-3-yl]carbonyl}-3,6-diazabicyclo[3.2.1]octane] | > 10000 | 103 | >97
2 | Cc1cc(C)nc(N2CC3CC2CN(C(=O)c2ccccc2CC(F)(F)F)C3)n1 (stereo not drawn) [Example 25, 6-(4,6-dimethylpyrimidin-2-yl)-3-{[2-(2,2,2-trifluoroethyl)phenyl]carbonyl}-3,6-diazabicyclo[3.2.1]octane] | 2020 | 17 | 119
3 | Cc1cc(C)nc(N2CC3CC2CN(C(=O)c2cccnc2OC(C)C)C3)n1 (stereo not drawn) [Example 21, 6-(4,6-dimethylpyrimidin-2-yl)-3-{[2-(1-methylethoxy)pyridin-3-yl]carbonyl}-3,6-diazabicyclo[3.2.1]octane] | 2670 | 18 | 148
4 | Cc1cc(C)nc(N2CC3CC2CN(C(=O)c2cccnc2OCC(F)(F)C(F)F)C3)n1 (stereo not drawn) [Example 43, 6-(4,6-dimethylpyrimidin-2-yl)-3-{[2-(2,2,3,3-tetrafluoropropoxy)pyridin-3-yl]carbonyl}-3,6-diazabicyclo[3.2.1]octane] | 206 | 5 | 41
5 | Cc1cc(C)nc(N2CC3CC2CN(C(=O)c2cccnc2OCC(F)(F)F)C3)n1 (stereo not drawn) [Example 22, 6-(4,6-dimethylpyrimidin-2-yl)-3-{[2-(2,2,2-trifluoroethoxy)pyridin-3-yl]carbonyl}-3,6-diazabicyclo[3.2.1]octane] | 1040 | 13 | 80
6 | Cc1cc(C)nc(N2CC3CC2CN(C(=O)c2ccccc2C2(F)CC2)C3)n1 (stereo not drawn) [Example 18, 6-(4,6-dimethylpyrimidin-2-yl)-3-{[2-(1-fluorocyclopropyl)-phenyl]carbonyl}-3,6-diazabicyclo[3.2.1]octane] | 872 | 15 | 58
7 | COCCc1ccccc1C(=O)N1CC2CC(C1)N(c1nc(C)cc(C)n1)C2 (stereo not drawn) [Example 33, 6-(4,6-dimethylpyrimidin-2-yl)-3-{[2-(2-methoxyethyl)-phenyl]carbonyl}-3,6-diazabicyclo[3.2.1]octane] | 3990 | 44 | 91
8 | Cc1cc(C)nc(N2CC3CC2CN(C(=O)c2ccccc2OC(F)(F)F)C3)n1 (stereo not drawn) [Example 15, 6-(4,6-dimethylpyrimidin-2-yl)-3-{[2-(trifluoromethoxy)-phenyl]carbonyl}-3,6-diazabicyclo[3.2.1]octane] | 1530 | 30 | 51
9 | Cc1cc(C)nc(N2CC3CC2CN(C(=O)c2cccnc2OCC(C)O)C3)n1 (stereo not drawn) [Example 45, 1-[(3-{[6-(4,6-dimethylpyrimidin-2-yl)-3,6-diazabicyclo[3.2.1]oct-3-yl]carbonyl}pyridin-2-yl)oxy]propan-2-ol] | > 10000 | 90 | >111
10 | Cc1cc(C)nc(N2CC3CC2CN(C(=O)c2ccccc2C2CC2)C3)n1 (stereo not drawn) [Example 11, 3-[(2-cyclopropylphenyl)-carbonyl]-6-(4,6-dimethylpyrimidin-2-yl)-3,6-diazabicyclo[3.2.1]octane] | 613 | 13 | 47
11 | Cc1cc(C)nc(N2CC3CC2CN(C(=O)c2cccnc2CC(F)(F)F)C3)n1 (stereo not drawn) [Example 32, 6-(4,6-dimethylpyrimidin-2-yl)-3-{[2-(2,2,2-trifluoroethyl)pyridin-3-yl]carbonyl}-3,6-diazabicyclo[3.2.1]octane] | > 10000 | 58 | >172
12 | Cc1cc(C#N)nc(N2CC3CC2CN(C(=O)c2ccccc2CS(C)(=O)=O)C3)n1 (stereo not drawn) [Example 7, 6-methyl-2-(3-(2-((methylsulfonyl)methyl)benzoyl)-3,6-diazabicyclo[3.2.1]octan-6-yl)pyrimidine-4-carbonitrile] | > 10000 | 61 | >164
13 | Cc1cc(C)nc(N2CC3CC2CN(C(=O)c2ccccc2OC(C)C)C3)n1 (stereo not drawn) [Example 16, 6-(4,6-dimethylpyrimidin-2-yl)-3-{[2-(1-methylethoxy)-phenyl]carbonyl}-3,6-diazabicyclo[3.2.1]octane] | 982 | 16 | 61
14 | Cc1cc(C)nc(N2CC3CC2CN(C(=O)c2cc(F)cnc2C2CC2)C3)n1 (stereo not drawn) [Example 8] | 5860 | 29 | 202
15 | Cc1cc(C)nc(N2CC3CC2CN(C(=O)c2cccnc2C2CC2)C3)n1 (stereo not drawn) [Example 35, 3-[(2-cyclopropylpyridin-3-yl)carbonyl]-6-(4,6-dimethylpyrimidin-2-yl)-3,6-diazabicyclo[3.2.1]octane] | > 10000 | 47 | >213
16 | CO[C@@H]1CCN(c2ncccc2C(=O)N2CC3CC(C2)N(c2nc(C)cc(C)n2)C3)C1 (stereo partly drawn) [Example 46, (6-(4,6-dimethylpyrimidin-2-yl)-3,6-diazabicyclo[3.2.1]octan-3-yl)(2-((R)-3-methoxypyrrolidin-1-yl)pyridin-3-yl)methanone] | > 10000 | 90 | >111
17 | Cc1cc(C)nc(N2CC3CC2CN(C(=O)c2nccnc2OCC2CC2)C3)n1 (stereo not drawn) [Example 48, (3-(cyclopropylmethoxy)pyrazin-2-yl)(6-(4,6-dimethylpyrimidin-2-yl)-3,6-diazabicyclo[3.2.1]octan-3-yl)methanone] | 3830 | 37 | 103
18 | Cc1cc(C)nc(N2CC3CC2CN(C(=O)c2nccnc2OC(C)C)C3)n1 (stereo not drawn) [Example 52, 6-(4,6-dimethylpyrimidin-2-yl)-3-{[3-(1-methylethoxy)pyrazin-2-yl]carbonyl}-3,6-diazabicyclo[3.2.1]octane] | > 10000 | 60 | >167
19 | Cc1cc(C)nc(N2CC3CC2CN(C(=O)c2ccccc2-n2ncnn2)C3)n1 (stereo not drawn) [Example 19, 6-(4,6-dimethylpyrimidin-2-yl)-3-{[2-(2H-tetrazol-2-yl)phenyl]carbonyl}-3,6-diazabicyclo[3.2.1]octane] | 1600 | 36 | 44
20 | Cc1cc(C)nc(N2CC3CC2CN(C(=O)c2cccnc2OCC2CCC2)C3)n1 (stereo not drawn) [Example 42, 3-{[2-(cyclobutylmethoxy)pyridin-3-yl]carbonyl}-6-(4,6-dimethylpyrimidin-2-yl)-3,6-diazabicyclo[3.2.1]octane] | 628 | 15 | 42

— US9994570B2, “Bridged diazepane orexin receptor antagonists” (MERCK SHARP & DOHME CORP., priority 2014, dated 2018)
